Data taken from patent publication US8877773B2, “Methods for treating chronic obstructive pulmonary disease” (Indiana University Research and Technology Corporation, priority 2009, dated 2014).

System: FG-7142 treated rats
Experiment: FG-7142-induced anxiety: open field, social interaction and elevated plus maze tests
Type: in vivo, rat
Settings: Wistar rats
Procedure: All experiments were conducted on adult male Wistar rats (250-300 g) purchased from Harlan Laboratories (Indianapolis, Ind. USA) and were housed individually in plastic cages under standard environmental conditions (22° C.; 12/12 light/dark cycle; lights on at 7:00 A.M.) for 7-10 days prior to the surgical manipulations. Food and water were provided ad libitum.
The open-field arena covered an area of 90 cm×90 cm, with 40 cm high walls. The open-field arena was divided into a 6×6 grid of equally-sized squares using black tape (36 total squares) with 4 squares forming the centre; 12 squares forming the middle perimeter; and 20 squares forming the outer perimeter. The test started by placing a rat in the centre. The behavior of each rat in the open-field arena was recorded on video and scored afterwards by an observer blind to the experimental treatment of each rat. Time spent in each region of the open-field was recorded. In addition, locomotor activity was assessed by counting the number of times the rat's entire body (excluding tail) completely crossed into another square.
Following the OFT, the experimental rat was placed in an open field (0.9 m long×0.9 m wide with walls 0.3 m high) with an untreated novel partner rat. A video camera was fixed above the box, and all behavioral tests were videotaped. During the 5 min test the total amount of time the treated rat initiates interaction with the partner rat is recorded (sniffing, grooming etc.) as described previously. Videotaped sessions were scored at a later time by a SDF (blind to treatments) and a decrease in total interaction time was taken as an increase in “anxiety” like behavior.
Following the SI test, rats were place in the center area of the EPM where the two arms intersect. Unlike the SI test, the EPM measures many relevant anxiety related behaviors such as: no. of poke and full entries into and duration spent in closed versus open arm. […] Activity is measured using […] state of the art photobeams (16× beams and 16 Y beams) to provide the highest resolution system available (Automated EPM, Hamilton Kinder Scientific, San diego, CA).

Cc1nc2ccc(NC(=O)Nc3ccnc4cccnc34)cc2o1 [SB334867, N-(2-Methyl-6-benzoxazolyl)-N′-1,5-naphthyridin-4-yl urea]
time in open arms of elevated plus maze (FG-7142 7.5 mg/kg ip, with or without SB334867 30 mg/kg ip): higher time in open arms
FG-7142-induced anxiety behavior in the social interaction test (SB334867 30 mg/kg ip followed by FG-7142 7.5 mg/kg ip): blocked
FG-7142 induced anxiety in the open field test (SB334867 30 mg/kg ip followed by FG-7142 7.5 mg/kg ip, 15 min after FG-7142): appeared to have attenuated
